Measured values: publication PMC6598542, “Synthesis of a new series of 3-functionalised-1-phenyl-1,2,3-triazole sulfamoylbenzamides as carbonic anhydrase I, II, IV and IX inhibitors” (Journal of Enzyme Inhibition and Medicinal Chemistry, 2019)
Where two headings read alike, the source gives them in different places.

Assays:
[1] = target: T1, hCA I (Homo sapiens, UniProt P00915); assay: stopped-flow CO2 hydration; type: biochemical
T1 construct: gene CA1; recombinant, cytosolic isoform
How it was run: (§1)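 Each recombinant human isozyme was held with inhibitor for 10 min at room temperature before a stopped-flow assay of CO2 hydration at 25 °C. The buffer was 10 mM Hepes pH 7.4 with 0.1 M Na2SO4 or NaClO4 and 0.2 mM Phenol Red read at 557 nm over 5–10 s, and CO2-saturated water served as substrate. Ki constants come from non-linear least-squares fits using the Cheng-Prusoff equation. At least seven inhibitor concentrations, the lowest 0.01 nM, were tested in triplicate, and values are means of at least three determinations.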

[2] = target: T2, hCA IX (Homo sapiens, UniProt Q16790); assay: stopped-flow CO2 hydration; type: biochemical
T2 construct: gene CA9; recombinant, transmembrane isoform
How it was run: as §1

[3] = target: T3, hCA II (Homo sapiens, UniProt P00918); assay: stopped-flow CO2 hydration; type: biochemical; settings: read-out: hCAII
T3 construct: gene CA2; recombinant, cytosolic isoform
How it was run: as §1

[4] = target: T4, hCA IV (Homo sapiens, UniProt P22748); assay: biochemical; set-up: Stopped-flow CO2 hydration assay, phenol red at 557 nm, 10 min preincubation, recombinant hCA; Ki via Cheng-Prusoff
T4 construct: gene CA4
Method: An SX.18 MV-R Applied Photophysics (Oxford, UK) stopped-flow instrument has been used for assaying the CA catalyzed CO2 hydration activity. Phenol Red (at a concentration of 0.2 mM) has been used as indicator, working at the absorbance maximum of 557 nm, with 10 mM Hepes (pH 7.4) as buffer, 0.1 M Na2SO4 or NaClO4 (for maintaining constant the ionic strength; these anions are not inhibitory in the used concentration), following the CA-catalyzed CO2 hydration reaction for a period of 5–10 s. Saturated CO2 solutions in water at 25 °C were used as substrate. Stock solutions of inhibitors were prepared at a concentration of 10 μM (in DMSO-water 1:1, v/v) and dilutions up to 0.01 nM done with the assay buffer mentioned above. At least seven different inhibitor concentrations have been used for measuring the inhibition constant. Inhibitor and enzyme solutions were preincubated together for 10 min at room temperature prior to assay, in order to allow for the formation of the E-I complex. Triplicate experiments were done for each inhibitor concentration, and the values reported throughout the paper are the mean of such results. The inhibition constants were obtained by non-linear least-squares methods using the Cheng-Prusoff equation, as reported earlier, and represent the mean from at least three different determinations. All CA isozymes used here were recombinant proteins obtained as reported earlier by our group[10]^c,[25]^,[26]. The newly synthesised compounds 3-sulfamoylbenzamide linked 1,2,3-triazoles (Figure 4) (6a–z) as well as the intermediates (3a–d) and (4a–d) (listed in Table 1) were screened for their CA inhibitory activities against four physiologically significant isoforms, the cytosolic hCA I (associated with edema) and II (associated with glaucoma) as well as the membrane bound hCA IV (associated with glaucoma and retinitis pigmentosa) and transmembrane hCA IX (associated with tumors) by means of the stopped flow carbon dioxide assays[29] in comparison to AAZ as standard CAI (Table 2).

[5] = target: T4, hCA IV; assay: stopped-flow CO2 hydration; type: biochemical
How it was run: as §1

[6] = CO2 substrate, pH […] Hepes, […] °C, […] min preincubation

T4 sequence (P22748 19-284): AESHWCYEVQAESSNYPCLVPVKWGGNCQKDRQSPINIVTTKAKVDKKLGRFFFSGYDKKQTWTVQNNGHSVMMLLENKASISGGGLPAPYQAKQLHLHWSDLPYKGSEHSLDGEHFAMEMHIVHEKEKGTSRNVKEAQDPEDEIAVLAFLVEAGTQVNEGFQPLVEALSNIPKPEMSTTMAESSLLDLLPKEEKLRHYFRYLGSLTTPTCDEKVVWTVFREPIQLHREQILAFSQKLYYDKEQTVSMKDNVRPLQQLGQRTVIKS
T1 sequence (P00915 2-261): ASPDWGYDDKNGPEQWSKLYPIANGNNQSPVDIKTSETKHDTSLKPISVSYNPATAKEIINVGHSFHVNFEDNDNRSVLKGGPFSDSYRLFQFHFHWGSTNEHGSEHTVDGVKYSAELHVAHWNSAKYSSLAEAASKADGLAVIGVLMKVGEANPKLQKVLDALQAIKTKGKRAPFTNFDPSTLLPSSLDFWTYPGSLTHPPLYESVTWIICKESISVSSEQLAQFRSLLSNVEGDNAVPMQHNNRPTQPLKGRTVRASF

Row | Ki [1] | Ki [2] | Ki [3] | Ki [4] | Ki [5] | Ki [1, 6] | Ki [2, 6] | Ki [3, 6] | SMILES
1 | 8770 nM | 9420 nM | 8660 nM |  |  |  |  |  | NS(=O)(=O)c1cccc(C(=O)O)c1 [3a, 3-Sulfamoylbenzoic acid]
2 | 8850 nM | 8980 nM | 1380 nM | 2470 nM |  |  |  |  | NS(=O)(=O)c1cc(C(=O)O)ccc1Cl [3b, 4-Chloro-3-sulfamoylbenzoic acid]
3 | 5750 nM | 9570 nM | 760 nM | 958 nM |  |  |  |  | NS(=O)(=O)c1cc(C(=O)O)ccc1F [3c, 4-Fluoro-3-sulfamoylbenzoic acid]
4 | 9760 nM | 9670 nM | 9180 nM | 8780 nM |  |  |  |  | COc1ccc(C(=O)O)cc1S(N)(=O)=O [3d, 4-Methoxy-3-sulfamoylbenzoic acid]
5 | 9280 nM | 9360 nM | 514 nM | 8460 nM |  |  |  |  | C#CCNC(=O)c1cccc(S(N)(=O)=O)c1 [4a, N-(prop-2-yn-1-yl)-3-sulfamoylbenzamide]
6 | 4930 nM | 447 nM | 73.5 nM |  | 78.8 nM |  |  |  | C#CCNC(=O)c1ccc(Cl)c(S(N)(=O)=O)c1 [4b, 4-Chloro-N-(prop-2-yn-1-yl)-3-sulfamoylbenzamide]
7 | 747 nM | 816 nM | 165 nM |  | 429 nM |  |  |  | C#CCNC(=O)c1ccc(F)c(S(N)(=O)=O)c1 [4c, 4-Fluoro-N-(prop-2-yn-1-yl)-3-sulfamoylbenzamide]
8 | 9500 nM | 9220 nM | 5530 nM | 6840 nM |  |  |  |  | C#CCNC(=O)c1ccc(OC)c(S(N)(=O)=O)c1 [4d, 4-Methoxy-N-(prop-2-yn-1-yl)-3-sulfamoylbenzamide]
9 | 753 nM | 7980 nM | 4490 nM | 9420 nM |  |  |  |  | NS(=O)(=O)c1cccc(C(=O)NCc2cn(-c3ccccc3)nn2)c1 [6a, N-((1-phenyl-1H-1,2,3-triazol-4-yl)methyl)-3-sulfamoylbenzamide]
10 | 855 nM | 4900 nM | 8970 nM |  |  |  |  |  | COc1cc(-n2cc(CNC(=O)c3cccc(S(N)(=O)=O)c3)nn2)cc(OC)c1OC [6b, 3-Sulfamoyl-N-((1–(3,4,5-trimethoxyphenyl)-1H-1,2,3-triazol-4-yl)methyl)benzamide]
11 | 952 nM | 6920 nM | 9270 nM |  |  |  |  |  | NS(=O)(=O)c1cccc(C(=O)NCc2cn(-c3cccc([N+](=O)[O-])c3)nn2)c1 [6c, N-((1–(3-nitrophenyl)-1H-1,2,3-triazol-4-yl)methyl)-3-sulfamoylbenzamide]
12 | 867 nM | 7420 nM | 2970 nM | 8840 nM |  |  |  |  | NS(=O)(=O)c1cccc(C(=O)NCc2cn(-c3cccc(F)c3)nn2)c1 [6d, N-((1–(3-fluorophenyl)-1H-1,2,3-triazol-4-yl)methyl)-3-sulfamoylbenzamide]
13 | 431 nM | 3190 nM | 2360 nM | 9300 nM |  |  |  |  | N#Cc1cccc(-n2cc(CNC(=O)c3cccc(S(N)(=O)=O)c3)nn2)c1 [6e, N-((1–(3-cyanophenyl)-1H-1,2,3-triazol-4-yl)methyl)-3-sulfamoylbenzamide]
14 |  |  |  |  |  | 888 nM | 6750 nM | 9010 nM | COc1ccc(-n2cc(CNC(=O)c3cccc(S(N)(=O)=O)c3)nn2)cc1 [6f, N-((1–(4-methoxyphenyl)-1H-1,2,3-triazol-4-yl)methyl)-3-sulfamoylbenzamide]
15 | 448 nM | 6130 nM | 366 nM | 8580 nM |  |  |  |  | Cc1cccc(-n2cc(CNC(=O)c3cccc(S(N)(=O)=O)c3)nn2)c1C [6g, N-((1–(2,3-dimethylphenyl)-1H-1,2,3-triazol-4-yl)methyl)-3-sulfamoylbenzamide]
16 | 693 nM | 226 nM | 516 nM | 1760 nM |  |  |  |  | Cc1ccc(-n2cc(CNC(=O)c3cccc(S(N)(=O)=O)c3)nn2)c(C)c1 [6h, N-((1–(2,4-dimethylphenyl)-1H-1,2,3-triazol-4-yl)methyl)-3-sulfamoylbenzamide]
17 | 312 nM | 84.4 nM | 71.2 nM |  | 170 nM |  |  |  | NS(=O)(=O)c1cc(C(=O)NCc2cn(-c3ccccc3)nn2)ccc1Cl [6i, 4-Chloro-N-((1-phenyl-1H-1,2,3-triazol-4-yl)methyl)-3-sulfamoylbenzamide]
18 | 479 nM | 212 nM | 51.4 nM |  | 2280 nM |  |  |  | COc1cc(-n2cc(CNC(=O)c3ccc(Cl)c(S(N)(=O)=O)c3)nn2)cc(OC)c1OC [6j, 4-Chloro-3-sulfamoyl-N-((1–(3,4,5-trimethoxyphenyl)-1H-1,2,3-triazol-4-yl)methyl)-benzamide]
19 | 86.7 nM | 41.6 nM | 56.5 nM |  | 80 nM |  |  |  | COc1ccc(-n2cc(CNC(=O)c3ccc(Cl)c(S(N)(=O)=O)c3)nn2)cc1 [6k, 4-Chloro-N-((1–(4-methoxyphenyl)-1H-1,2,3-triazol-4-yl)methyl)-3-sulfamoylbenzamide]
20 | 811 nM | 34.6 nM | 7.8 nM |  | 89.9 nM |  |  |  | NS(=O)(=O)c1cc(C(=O)NCc2cn(-c3ccc(C(F)(F)F)cc3)nn2)ccc1Cl [6m, 4-Chloro-3-sulfamoyl-N-((1–(4-(trifluoromethyl)phenyl)-1H-1,2,3-triazol-4-yl)methyl)benzamide]
21 | 890 nM | 84.5 nM | 49.7 nM |  | 240 nM |  |  |  | NS(=O)(=O)c1cc(C(=O)NCc2cn(-c3ccccc3)nn2)ccc1F [6n, 4-Fluoro-N-((1-phenyl-1H-1,2,3-triazol-4-yl)methyl)-3-sulfamoylbenzamide]
22 | 69.2 nM | 63.1 nM | 73.5 nM |  | 175 nM |  |  |  | COc1ccc(-n2cc(CNC(=O)c3ccc(F)c(S(N)(=O)=O)c3)nn2)cc1 [6o, 4-Fluoro-N-((1–(4-methoxyphenyl)-1H-1,2,3-triazol-4-yl)methyl)-3-sulfamoylbenzamide]
23 | 369 nM | 235 nM | 91.1 nM |  | 91.8 nM |  |  |  | NS(=O)(=O)c1cc(C(=O)NCc2cn(-c3ccc(C(F)(F)F)cc3)nn2)ccc1F [6p, 4-Fluoro-3-sulfamoyl-N-((1–(4-(trifluoromethyl)phenyl)-1H-1,2,3-triazol-4-yl)methyl)benzamide]
24 | 681 nM | 703 nM | 2900 nM | 9350 nM |  |  |  |  | COc1ccc(C(=O)NCc2cn(-c3ccccc3)nn2)cc1S(N)(=O)=O [6u, 4-Methoxy-N-((1-phenyl-1H-1,2,3-triazol-4-yl)methyl)-3-sulfamoylbenzamide]
25 | 572 nM | 6820 nM | 9650 nM | 5350 nM |  |  |  |  | COc1ccc(C(=O)NCc2cn(-c3ccc(F)cc3)nn2)cc1S(N)(=O)=O [6v, N-((1–(4-fluorophenyl)-1H-1,2,3-triazol-4-yl)methyl)-4-methoxy-3-sulfamoylbenzamide]
26 | 967 nM | 526 nM | 4160 nM | 7620 nM |  |  |  |  | COc1ccc(C(=O)NCc2cn(-c3ccc(C)cc3)nn2)cc1S(N)(=O)=O [6w, 4-Methoxy-3-sulfamoyl-N-((1-(p-tolyl)-1H-1,2,3-triazol-4-yl)methyl)benzamide]
27 | 7560 nM | 93.8 nM | 6390 nM | 9340 nM |  |  |  |  | COc1ccc(C(=O)NCc2cn(-c3ccc(C)cc3C)nn2)cc1S(N)(=O)=O [6x, N-((1–(2,4-dimethylphenyl)-1H-1,2,3-triazol-4-yl)methyl)-4-methoxy-3-sulfamoylbenzamide]
28 | 555 nM | 1870 nM | 2330 nM | 9080 nM |  |  |  |  | COc1ccc(C(=O)NCc2cn(-c3ccc(Br)cc3)nn2)cc1S(N)(=O)=O [6y, N-((1–(4-bromophenyl)-1H-1,2,3-triazol-4-yl)methyl)-4-methoxy-3-sulfamoylbenzamide]
29 | 952 nM | 768 nM | 5370 nM | 8930 nM |  |  |  |  | COc1ccccc1-n1cc(CNC(=O)c2ccc(OC)c(S(N)(=O)=O)c2)nn1 [6z, 4-Methoxy-N-((1–(2-methoxyphenyl)-1H-1,2,3-triazol-4-yl)methyl)-3-sulfamoylbenzamide]
